Structures can show the parent of a compound that is named as a salt.
Columns and labels:
[1] = system: human ApoA-I promoter; experiment: ApoA-I promoter induction in Caco-2 intestinal cells (pAI.474-Luc luciferase reporter); type: cell-based; details: Caco-2 cells, 15 μM, 48 hours incubation, luciferase activity vs control samples
Procedure: To examine the effects of compounds of the invention to increase ApoA-I expression, Caco-2 cells, an intestinal cell line derived from human epithelial intestinal cells, were grown under conditions recommended by the ATCC and summarized in United States Patent Application Publication No. 20040033480 (“Wong”), incorporated herein by reference.
Briefly, the promoter region of the gene encoding human ApoA-I was isolated and ligated upstream of the firefly luciferase gene to construct the reporter plasmid pAI.474-Luc. This reporter plasmid and pRSV-β-galactosidase (as a control for transfection efficiency) were co-transfected to Caco-2 cells. The Caco-2 cells were then incubated in a MEM selection media containing 20% fetal calf serum supplemented with G418 (final concentration: 0.5 mg/mL, Gibco) to give established strains that stably express from the reporter gene. The strains were seeded in 6-well culture plates and incubated for 48 hours at 37° C. under 5% carbon dioxide. Cells were starved for 24 hrs in MEM selection media containing 0.5% FBS. Then, a solution of a compound of the invention in DMSO or other appropriate solvent was added to the wells at a final concentration of 0 to 100 μM in MEM selection media containing 0.5% FBS.
After further incubation for 48 hours, the cells were harvested and lysed using Reporter Lysis Buffer (PROMEGA E3971), and 50 μL of luciferase assay reagent (PROMEGA E4550 Luciferase Reporter 1000 assay system) was added to measure luciferase activity with a luminometer (Fluoroskan Ascent FL from Thermo electron Corporation). Luciferase activity was normalized to lysate protein concentrations, measured using Bradford Reagent (BioRad Protein Assay reagent Cat #500-0006). The luciferase activity of cells treated with various concentrations of test compounds was compared to that of solvent control sample (i.e., solvent without any compound of the present invention added) and untreated control sample.

Compound	melting point	ApoA-I Promoter Induction [1]
Cl.Nc1cccc2c(=O)cc(-c3ccc(O)c(F)c3)oc12	256.4 to 258.5 °C	
O=c1cc(-c2ccc(C[n+]3ccccc3)cc2)oc2ccc(O)cc12.[Cl-]	243 to 247 °C	
O=c1cc(-c2cccc(O)c2)oc2ccccc12 [2-(3-Hydroxyphenyl)-4H-chromen-4-one, 2-(3-hydroxyphenyl)-4H-chromen-4-one, reference compound]		increased
O=c1cc(-c2ccc(O)cc2)oc2ccccc12 [2-(4-Hydroxyphenyl)-chromen-4-one, 2-(4-Hydroxy-phenyl)-chromen-4-one, reference compound]		increased
COc1cc(-c2cc(=O)c3ccccc3o2)ccc1O [2-(4-hydroxy-3-methoxyphenyl)-4H-chromen-4-one, reference compound]		increased
O=c1cc(-c2ccccc2)oc2ccccc12 [2-Phenyl-4H-chromen-4-one, 2-phenyl-4H-chromen-4-one, reference compound]		increased
O=c1c(-c2ccc(O)cc2)coc2cc(O)cc(O)c12 [5,7-dihydroxy-3-(4-hydroxyphenyl)-4H-chromen-4-one, reference compound]		increased
O=c1cc(-c2ccc(O)cc2)oc2cccc(O)c12 [5-Hydroxy-2-(4-hydroxy-phenyl)-chromen-4-one, reference compound]		increased
O=c1cc(-c2ccccc2)oc2cccc(O)c12 [5-Hydroxy-2-phenyl-4H-chromen-4-one, 5-Hydroxy-2-phenyl-chromen-4-one, reference compound]		increased
O=c1cc(-c2ccc(O)cc2)oc2ccc(O)cc12 [6-hydroxy-2-(4-hydroxyphenyl)-4H-chromen-4-one, reference compound]		increased
O=c1cc(-c2ccc(O)cc2)oc2cc(O)ccc12 [7-Hydroxy-2-(4-hydroxy-phenyl)-chromen-4-one, reference compound]		increased
O=c1cc(-c2ccccc2)oc2cc(O)ccc12 [7-Hydroxy-2-phenyl-4H-chromen-4-one, 7-hydroxy-2-phenyl-4H-chromen-4-one, reference compound]		increased
COc1ccc(-c2cc(=O)c3c(F)cc(F)cc3o2)cc1 [Example 1, 5,7-Difluoro-2-(4-methoxy-phenyl)-chromen-4-one]		no increase
O=c1cc(-c2ccc(O)cc2)oc2cc(F)cc(F)c12 [Example 2, 5,7-Difluoro-2-(4-hydroxyphenyl)-4H-chromen-4-one]		increased
COc1ccc(-c2cc(=O)c3ccccc3o2)cc1 [Example 4, 2-(4-Methoxy-phenyl)-4H-chromen-4-one]		increased
O=c1cc(-c2ccc(O)cc2)oc2c(O)cccc12 [Example 5, 8-Hydroxy-2-(4-hydroxy-phenyl)-4H-chromen-4-one]		increased
CC(=O)Nc1cc(O)ccc1-c1cc(=O)c2ccccc2o1 [Example 8, N-[5-Hydroxy-2-(4-oxo-4H-chromen-2-yl)-phenyl]acetamide]	253 to 255 °C	
O=c1cc(-c2ccc(O)cc2[N+](=O)[O-])oc2ccccc12 [Example 10, 2-(4-Hydroxy-2-nitrophenyl)chromen-4-one]	277 to 279 °C	
O=c1cc(-c2ccc(O)cc2F)oc2ccccc12 [Example 15, 2-(2-Fluoro-4-hydroxyphenyl)chromen-4-one]	287 to 289 °C	
O=c1cc(-c2ccc(O)cc2)oc2c([N+](=O)[O-])cccc12 [Example 16, 2-(4-Hydroxyphenyl)-8-nitro-4H-chromen-4-one]	299 to 301 °C	

Compound	melting point	ApoA-I Promoter Induction [1]
COc1cccc2c(=O)cc(-c3ccc(O)cc3)oc12 [Example 17, 2-(4-Hydroxyphenyl)-8-methoxy-4H-chromen-4-one]	281 to 283 °C	increased
COc1cc(OC)c2c(=O)cc(-c3ccc(O)cc3)oc2c1 [Example 18, 2-(4-Hydroxyphenyl)-5,7-dimethoxy-4H-chromen-4-one]	301 to 303 °C	increased
O=c1cc(-c2ccc(O)c(Br)c2)oc2ccccc12 [Example 19, 2-(3-Bromo-4-hydroxyphenyl)-4H-chromen-4-one]	273.5 to 274.9 °C	increased
CN(C)Cc1c(-c2ccc(O)cc2)oc2ccccc2c1=O.Cl [Example 20, 3-((Dimethylamino)methyl)-2-(4-hydroxyphenyl)-4H-chromen-4-one hydrochloride]	271.5 to 272.3 °C	no increase
N#CCc1c(-c2ccc(O)cc2)oc2ccccc2c1=O [Example 21, 2-(2-(4-Hydroxyphenyl)-4-oxo-4H-chromen-3-yl)acetonitrile]	258.2 to 259.5 °C	increased
O=c1c(CO)c(-c2ccc(O)cc2)oc2ccccc12 [Example 22, 3-(Hydroxymethyl)-2-(4-hydroxyphenyl)-4H-chromen-4-one]	234 to 235 °C	
N#Cc1ccc2oc(-c3ccc(O)cc3)cc(=O)c2c1 [Example 23, 2-(4-Hydroxyphenyl)-4-oxo-4H-chromene-6-carbonitrile]	296 to 298 °C	
CC(=O)Oc1ccc(-c2cc(=O)c3cc(Br)cc([N+](=O)[O-])c3o2)cc1F [Example 25, 4-(6-Bromo-8-nitro-4-oxo-4H-chromen-2-yl)-2-fluorophenyl acetate]	236.2 to 238.5 °C	increased
COCc1c(-c2ccc(O)cc2)oc2ccccc2c1=O [Example 26, 2-(4-Hydroxyphenyl)-3-(methoxymethyl)-4H-chromen-4-one]	237 to 239 °C	increased
CN(C)Cc1ccc2oc(-c3ccc(O)cc3)cc(=O)c2c1 [Example 28, 6-((Dimethylamino)methyl)-2-(4-hydroxyphenyl)-4H-chromen-4-one]	99 to 102 °C	
O=c1cc(-c2ccc(O)cc2)oc2c[n+]([O-])ccc12 [Example 30, 2-(4-Hydroxyphenyl)-4-oxo-4H-pyrano[2,3-c]pyridine 7-oxide]	307 to 308 °C	no increase
O=c1cc(-c2ccc(O)cc2)oc2c1ccc[n+]2[O-] [Example 31, 2-(4-Hydroxyphenyl)-4-oxo-4H-pyrano[2,3-b]pyridine 8-oxide]	314 to 315 °C	no increase
O=c1cc(-c2ccc(O)cc2)oc2cc[n+]([O-])cc12 [Example 32, 2-(4-Hydroxyphenyl)-4-oxo-4H-pyrano[3,2-c]pyridine 6-oxide]		no increase
N#Cc1ccc(-c2cc(=O)c3cccnc3o2)cc1 [Example 40, 4-(4-Oxo-4H-pyrano[2,3-b]pyridine-2-yl)benzonitrile]	250 to 252 °C	increased
O=c1cc(-c2ccc(O)cc2)[nH]c2cc(O)cc(O)c12 [Example 50, 5,7-Dihydroxy-2-(4-hydroxyphenyl)-quinolin-4(H)-one]		increased
CNc1nc(-c2ccc(O)c(F)c2)cc2c(OC)cccc12 [Example 58, 2-Fluoro-4-(5-methoxy-1-(methylamino)isoquinolin-3-yl)phenol]	185 to 187 °C	
Oc1ccc(-c2ccc3ccccc3c2)cc1 [Example 65, 4-Naphthalen-2-yl-phenol]		increased
O=C1C=C(c2ccc(O)cc2)S(=O)(=O)c2ccccc21 [Example 66, 2-(4-Hydroxy-phenyl)-1,1-dioxo-1H-1λ^6-thiochromen-4-one]	222 to 224 °C	
Oc1ccc(-c2ccc3ccccc3c2)nc1 [Example 68, 6-Naphthalen-2-yl-pyridin-3-ol]	168 to 169 °C	
N=C(N)NCCCC(N)C(=O)Oc1ccc(-c2cc(=O)c3ccccc3o2)cc1 (centres unmarked) [Example 76, 2-Amino-5-guanidino-pentanoic acid 4-(4-oxo-4H-chromen-2-yl)phenyl ester trihydrochloride]		increased
